Results taken from the supplement of paper PMC11061612.

How the values were obtained:
Experiment in all cases: combination Emax (second highest fraction inhibited in the dose matrix, 72 h); higher = more inhibition; extreme values may be limits of the assay
[1] = system: KOPN-8 (B-Lymphoblastic Leukemia)
Summary of the method: (§1)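 Cell lines grown in DMEM/F12 or RPMI with 10% FBS were plated in 1536-well plates and held 24 hours at 37°C, 5% CO2 before 72 hours of exposure to two-drug dose matrices, with DMSO typically at 0.2%. CellTiter-Glo 2.0 luminescence gave viability, which was converted to inhibition. Vehicle wells were set to 0 and blank wells to 1. Combination Emax is the second-highest inhibition in the matrix, and Bliss excess is the observed combination effect minus the expected EA + EB − EA·EB, where EA and EB are the single-agent effects.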

[2] = system: NCI-H2122 (Lung Adenocarcinoma)
Summary of the method: as §1

[3] = system: HCC2998 (Colorectal Carcinoma)
Summary of the method: as §1

[4] = system: DU-145 (Prostate Carcinoma)
Summary of the method: as §1

Row | Structure (SMILES) | combination Emax [1] | combination Emax [2] | combination Emax [3] | combination Emax [4]
1 | CN(CCO)CC[C@H](CSc1ccccc1)Nc1ccc(S(=O)(=O)NC(=O)c2ccc(N3CCC([C@@H](O)c4ccccc4-c4ccc(Cl)cc4)CC3)cc2)cc1S(=O)(=O)C(F)(F)F [AZD4320] + C1CN(CCC1(C(=O)N[C@@H](CCO)C2=CC=C(C=C2)Cl)N)C3=NC=NC4=C3C=CN4 [Capivasertib] (first compound max 1 µM, 7x7, partner max 3 µM) | 0.883 | 0.411 | 0.881 | 0.0863
2 | CN(CCO)CC[C@H](CSc1ccccc1)Nc1ccc(S(=O)(=O)NC(=O)c2ccc(N3CCC([C@@H](O)c4ccccc4-c4ccc(Cl)cc4)CC3)cc2)cc1S(=O)(=O)C(F)(F)F [AZD4320] + CC(=O)O[C@H]1C(=O)[C@@]2(C)[C@H]([C@H](OC(=O)c3ccccc3)[C@]3(O)C[C@H](OC(=O)[C@H](O)[C@@H](NC(=O)c4ccccc4)c4ccccc4)C(C)=C1C3(C)C)[C@]1(OC(C)=O)CO[C@@H]1C[C@@H]2O [Paclitaxel] (first compound max 1 µM, 7x7, partner max 3 µM) | – | – | – | 0.818
3 | CN(CCO)CC[C@H](CSc1ccccc1)Nc1ccc(S(=O)(=O)NC(=O)c2ccc(N3CCC([C@@H](O)c4ccccc4-c4ccc(Cl)cc4)CC3)cc2)cc1S(=O)(=O)C(F)(F)F [AZD4320] + CCN(CCO)CCCOc1ccc2c(Nc3cc(CC(=O)Nc4cccc(F)c4)[nH]n3)ncnc2c1 [AZD2811] (first compound max 1 µM, 7x7, partner max 1 µM) | 0.963 | 0.794 | 0.753 | –
4 | CN(CCO)CC[C@H](CSc1ccccc1)Nc1ccc(S(=O)(=O)NC(=O)c2ccc(N3CCC([C@@H](O)c4ccccc4-c4ccc(Cl)cc4)CC3)cc2)cc1S(=O)(=O)C(F)(F)F [AZD4320] + C[C@@H]1COCCN1C2=NC(=NC(=C2)C3(CC3)[S@](=N)(=O)C)C4=C5C=CNC5=NC=C4 [AZD6738] (first compound max 1 µM, 7x7, partner max 10 µM) | 0.995 | 0.972 | 0.968 | 0.6
5 | CN(CCO)CC[C@H](CSc1ccccc1)Nc1ccc(S(=O)(=O)NC(=O)c2ccc(N3CCC([C@@H](O)c4ccccc4-c4ccc(Cl)cc4)CC3)cc2)cc1S(=O)(=O)C(F)(F)F [AZD4320] + C[C@@H](Nc1cc(F)cc(F)c1)c1cc(C(=O)N(C)C)cc2c(=O)cc(N3CCOCC3)oc12 [AZD8186] (first compound max 1 µM, 7x7, partner max 3 µM) | 1 | 0.536 | 0.884 | 0.227
6 | CN(CCO)CC[C@H](CSc1ccccc1)Nc1ccc(S(=O)(=O)NC(=O)c2ccc(N3CCC([C@@H](O)c4ccccc4-c4ccc(Cl)cc4)CC3)cc2)cc1S(=O)(=O)C(F)(F)F [AZD4320] + Cc1cc2ncnn2cc1Nc1ncc2c(n1)n(C1CCOCC1)c(=O)n2C [AZD7648] (first compound max 1 µM, 7x7, partner max 10 µM) | 0.88 | 0.273 | 0.492 | –
7 | CN(CCO)CC[C@H](CSc1ccccc1)Nc1ccc(S(=O)(=O)NC(=O)c2ccc(N3CCC([C@@H](O)c4ccccc4-c4ccc(Cl)cc4)CC3)cc2)cc1S(=O)(=O)C(F)(F)F [AZD4320] + Cn1cnc2c(F)c(Nc3ccc(Br)cc3Cl)c(C(=O)NOCCO)cc21 [Selumetinib] (first compound max 1 µM, 7x7, partner max 3 µM) | 1 | 0.8 | 0.992 | 0.255
8 | CN(CCO)CC[C@H](CSc1ccccc1)Nc1ccc(S(=O)(=O)NC(=O)c2ccc(N3CCC([C@@H](O)c4ccccc4-c4ccc(Cl)cc4)CC3)cc2)cc1S(=O)(=O)C(F)(F)F [AZD4320] + Nc1ccn([C@@H]2O[C@H](CO)[C@@H](O)C2(F)F)c(=O)n1 [Gemcitabine] (first compound max 1 µM, 7x7, partner max 0.3 µM) | – | – | – | 0.485
9 | Cc1c2c(nn1C)CSCc1cc(n(C)n1)CSc1cc(c3ccccc3c1)OCCCc1c(C(=O)O)n(C)c3c-2c(Cl)ccc13 [AZD5991] + Cn1cnc2c(F)c(Nc3ccc(Br)cc3Cl)c(C(=O)NOCCO)cc21 [Selumetinib] (first compound max 1 µM, 7x7, partner max 3 µM) | 1 | 0.935 | 0.998 | 0.221
10 | Cc1cc2ncnn2cc1Nc1ncc2c(n1)n(C1CCOCC1)c(=O)n2C [AZD7648] + C=CCn1c(=O)c2cnc(Nc3ccc(N4CCN(C)CC4)cc3)nc2n1-c1cccc(C(C)(C)O)n1 [AZD1775] (first compound max 10 µM, partner max 1 µM) | 0.903 | 0.766 | 0.628 | 0.289
11 | Cc1cc2ncnn2cc1Nc1ncc2c(n1)n(C1CCOCC1)c(=O)n2C [AZD7648] + CCN(CCO)CCCOc1ccc2c(Nc3cc(CC(=O)Nc4cccc(F)c4)[nH]n3)ncnc2c1 [AZD2811] (first compound max 10 µM, 7x7, partner max 1 µM) | 0.58 | 0.355 | 0.191 | 0.209
12 | Cc1cc2ncnn2cc1Nc1ncc2c(n1)n(C1CCOCC1)c(=O)n2C [AZD7648] + CN(C)CCCOc1ccc(-c2ccc3ncc4c(c3c2)n(C2CCOCC2)c(=O)n4C)cn1 [AZD0156] (first compound max 10 µM, 7x7, partner max 1 µM) | 0.311 | 0.253 | 0.299 | 0.167
13 | Cc1cc2ncnn2cc1Nc1ncc2c(n1)n(C1CCOCC1)c(=O)n2C [AZD7648] + COc1cc([C@@H]2c3cc4c(cc3[C@@H](O[C@@H]3O[C@@H]5CO[C@@H](C)O[C@H]5[C@H](O)[C@H]3O)[C@H]3COC(=O)[C@H]23)OCO4)cc(OC)c1O [Etoposide] (first compound max 10 µM, 7x7, partner max 10 µM) | – | – | – | 0.441
14 | Cc1cc2ncnn2cc1Nc1ncc2c(n1)n(C1CCOCC1)c(=O)n2C [AZD7648] + C[C@@H]1COCCN1C2=NC(=NC(=C2)C3(CC3)[S@](=N)(=O)C)C4=C5C=CNC5=NC=C4 [AZD6738] (first compound max 10 µM, 7x7, partner max 10 µM) | 0.891 | 0.949 | 0.87 | 0.478
15 | Cc1cc2ncnn2cc1Nc1ncc2c(n1)n(C1CCOCC1)c(=O)n2C [AZD7648] + O=C(c1cc(Cc2n[nH]c(=O)c3ccccc23)ccc1F)N1CCN(C(=O)C2CC2)CC1 [Olaparib] (first compound max 10 µM, 7x7, partner max 10 µM) | 0.68 | 0.242 | 0.321 | 0.171
16 | Cc1nc(Nc2ncc(C(=O)Nc3c(C)cccc3Cl)s2)cc(N2CCN(CCO)CC2)n1 [Dasatinib] + CC(=O)Nc1cccc(-n2c(=O)n(C3CC3)c(=O)c3c(Nc4ccc(I)cc4F)n(C)c(=O)c(C)c32)c1 [Trametinib] (first compound max 2 µM, 7x7, partner max 1 µM) | 0.545 | 0.942 | 1 | 0.457
17 | COc1cc2ncnc(Nc3ccc(F)c(Cl)c3)c2cc1OCCCN1CCOCC1 [Gefitinib] + CC(C)n1c(=O)n(C)c2cnc3cc(F)c(-c4ccc(OCCCN5CCCCC5)nc4)cc3c21 [AZD1390] (first compound max 10 µM, 7x7, partner max 0.3 µM) | 0.241 | 0.626 | 0.105 | 0.167
18 | COc1cc2c(cc1OCCCCCOc1cc3c(cc1OC)C(=O)N1C=C(C)C[C@H]1C=N3)N=C[C@@H]1CC(C)=CN1C2=O [SG3199] + O=C(c1cc(Cc2n[nH]c(=O)c3ccccc23)ccc1F)N1CCN(C(=O)C2CC2)CC1 [Olaparib] (first compound max 0.001 µM, 7x7, partner max 10 µM) | 0.719 | 0.21 | 0.389 | 0.104
19 | N#Cc1cnc(Nc2cc(NC[C@H]3CNCCO3)c(C(F)(F)F)cn2)cn1 [SRA737] + C=CCn1c(=O)c2cnc(Nc3ccc(N4CCN(C)CC4)cc3)nc2n1-c1cccc(C(C)(C)O)n1 [AZD1775] (first compound max 10 µM, partner max 1 µM) | – | – | – | 0.263
20 | N#Cc1cnc(Nc2cc(NC[C@H]3CNCCO3)c(C(F)(F)F)cn2)cn1 [SRA737] + CCc1c2c(nc3ccc(O)cc13)-c1cc3c(c(=O)n1C2)COC(=O)[C@]3(O)CC [SN-38] (first compound max 10 µM, 7x7, partner max 0.3 µM) | – | – | – | 0.628
21 | N#Cc1cnc(Nc2cc(NC[C@H]3CNCCO3)c(C(F)(F)F)cn2)cn1 [SRA737] + Nc1ccn([C@@H]2O[C@H](CO)[C@@H](O)C2(F)F)c(=O)n1 [Gemcitabine] (first compound max 10 µM, 7x7, partner max 0.3 µM) | – | – | – | 0.544
22 | N#Cc1cnc(Nc2cc(NC[C@H]3CNCCO3)c(C(F)(F)F)cn2)cn1 [SRA737] + O=c1[nH]cc(F)c(=O)[nH]1 [5-Fluorouracil] (first compound max 10 µM, 7x7, partner max 20 µM) | – | – | – | 0.439
23 | C[C@@H](c1ccc2nccn2c1)n1nnc2ncc(-c3cnn(C)c3)nc21 [Savolitinib] + CC1(C)CCC(CN2CCN(c3ccc(C(=O)NS(=O)(=O)c4ccc(NCC5CCOCC5)c([N+](=O)[O-])c4)c(Oc4cnc5[nH]ccc5c4)c3)CC2)=C(c2ccc(Cl)cc2)C1 [Venetoclax] (first compound max 1 µM, 7x7, partner max 1 µM) | 0.743 | 0.196 | 0.105 | 0.101
24 | C[C@@H](c1ccc2nccn2c1)n1nnc2ncc(-c3cnn(C)c3)nc21 [Savolitinib] + Cc1c2c(nn1C)CSCc1cc(n(C)n1)CSc1cc(c3ccccc3c1)OCCCc1c(C(=O)O)n(C)c3c-2c(Cl)ccc13 [AZD5991] (first compound max 1 µM, 7x7, partner max 1 µM) | 0.844 | 0.64 | 0.454 | 0.132
